Reference: patent publication US20030013660A1, “Dioxolane analogs for improved inter-cellular delivery” (Shire BioChem Inc., priority 2000, published 2003)
Values joined by “and” are separate entries in the source; they are usually repeats but may differ in a detail not shown here. Equal entries are not always repeated.

Legend:
CCRF-CEM [1] = experiment: MTT or WST-1 assay at 72 hr (24 hr drug exposure, wash, 48 hr); format: cell-based
Method: (§1) Exposition of 24hr to drug, washed, and incubated for another 48hr (total of 72hr assay)

CEM/dCK- [2] = experiment: as above; format: cell-based
Method: as §1

SF-268 [3] = experiment: 3H-TdR (3H-thymidine) incorporation assay at 72 hr; format: cell-based, Human
H-460 [4] = experiment: 3H-TdR (3H-thymidine) incorporation assay at 72 hr; format: cell-based, Human; details: Homo sapiens
MCF-7 [5] = experiment: 3H-TdR (3H-thymidine) incorporation assay at 72 hr; format: cell-based, Human; details: Homo sapiens
MCF-7 [6] = experiment: MTT assay at 72 hr (24 hr drug exposure, wash, 48 hr); format: cell-based
Method: as §1

H-460 [7] = experiment: as above; format: cell-based
Method: as §1

SF-268 [8] = experiment: as above; format: cell-based
Method: as §1

CCRF-CEM [9] = experiment: 3H-TdR (3H-thymidine) incorporation assay at 72 hr; format: cell-based
Method: (§2) Table of IC50 Values (μM) for Controls
(§3) Exposition of 24 hr to drug, wash, incubated for another 48 hr (total of 72 hr assay)
(§4) (3H-Thymidine Incorporation Assay)

CEM/dCK- [10] = experiment: 3H-TdR (3H-thymidine) incorporation assay at 72 hr; format: cell-based
Method: as §2, §3, §4

CCRF-CEM [11] = experiment: 3H-TdR incorporation at 72 hr (24 hr drug exposure, wash, 48 hr); format: cell-based; details: Homo sapiens, CCRF-CEM, read-out: IC50 in μM (3H-TdR incorporation at 72 hr) CCRF-CEM 24 h, CCRF-CEM T-cell Leukemia, 72 hr assay
Method: as §3, §4

CEM/dCK- [12] = experiment: as above; format: cell-based; details: for IC50: Homo sapiens, CCRF-CEM, read-out: IC50 in μM (3H-TdR incorporation at 72 hr) CEM/dCK- 24 h, CCRF-CEM deoxycytidine kinase-deficient, 24 h drug exposure, 72 hr assay; for Factor* (Resistance Factor = Ratio of dCK- on Wild-type CCRF-CEM): ratio of IC50 CEM/dCK- to IC50 CCRF-CEM
Method: as §3, §4

MCF-7 [13] = experiment: as above; format: cell-based, Human; details: Homo sapiens, MCF7, read-out: IC50 in μM (3H-TdR incorporation at 72 hr) MCF-7 24 h, MCF-7 Human Breast Carcinoma, 72 hr assay
Method: as §3, §4

H-460 [14] = experiment: as above; format: cell-based, Human; details: Homo sapiens, NCI-H460, read-out: IC50 in μM (3H-TdR incorporation at 72 hr) H-460 24 h, H-460 Human Lung Carcinoma, 72 hr assay
Method: as §3, §4

SF-268 [15] = experiment: as above; format: cell-based, Human; details: Homo sapiens, SF-268, read-out: IC50 in μM (3H-TdR incorporation at 72 hr) SF-268 24 h, SF-268 Human Central Nervous System Tumor; 24 h drug exposure, 72 hr assay
Method: as §3, §4

[16] = read-out: IC50 CCRF-CEM 24 h, MMT or WST-1 at 72 hr, 24 h exposure, single experiment
[17] = read-out: IC50 CEM/dCK- 24 h, MMT or WST-1 at 72 hr, 24 h exposure, single experiment
[18] = Homo sapiens, MCF7, read-out: IC50 MCF-7 24 h, MTT at 72 hr, 24 h exposure, single experiment
[19] = read-out: IC50 MCF-7 24 h, MTT at 72 hr, 24 h exposure, single experiment
[20] = Homo sapiens, CCRF-CEM, read-out: IC50 CCRF-CEM 24 h, MMT or WST-1 at 72 hr, 24 h exposure, single experiment
[21] = Homo sapiens, SF-268, read-out: IC50 SF-268 24 h, MTT at 72 hr, 24 h exposure, single experiment
[22] = CEM/dCK- versus CCRF-CEM, single experiment

For `Nc1ccn([C@@H]2CO[C@H](CO)O2)c(=O)n1` [BCH-4556], the IC50 (CCRF-CEM [1]; Homo sapiens, CCRF-CEM, read-out: IC50 CCRF-CEM 24 h, Average, MMT or WST-1 at 72 hr, Average of the experiments) was 380 ± 280 nM, the IC50 (CCRF-CEM [1]; [16]) was 210 nM and 140 nM and the “Resistance Factor*, Average” value (CEM/dCK- [2]; CEM/dCK- versus CCRF-CEM, Average of the experiments) was 349 ± 283. For the same compound, the IC50 (CEM/dCK- [2]; read-out: IC50 CEM/dCK- 24 h, Average, MMT or WST-1 at 72 hr, Average of the experiments) was greater than 100 µM, the IC50 (SF-268 [3]; Homo sapiens, SF-268, 24 h, read-out: IC50 SF-268 24 h, Average, Average ± spread of the repeat determinations, 24 h exposure) was 440 nM and the IC50 (SF-268 [3]; Homo sapiens, SF-268, read-out: IC50 SF-268 (72 h), 72 h exposure, 3H-TdR incorporation at 72 hr) was 96 nM. For the same compound, the IC50 (SF-268 [3]; read-out: IC50 SF-268 24 h, 24 h drug exposure, wash, another 48 hr, 3H-TdR incorporation at 72 hr) was 330 nM and 660 nM, the IC50 (H-460 [4]; NCI-H460, 24 h, read-out: IC50 H-460 24 h, Average, Average ± spread of the repeat determinations, 24 h exposure) was 120 nM and the IC50 (H-460 [4]; NCI-H460, read-out: IC50 H-460 (72 h), 72 h exposure, 3H-TdR incorporation at 72 hr) was 40 nM. For the same compound, the IC50 (MCF-7 [5]; MCF7, 24 h, read-out: IC50 MCF-7 24 h, Average, Average ± spread of the repeat determinations, 24 h exposure) was 180 nM, the IC50 (MCF-7 [5]; MCF7, read-out: IC50 MCF-7 (72 h), 72 h exposure, 3H-TdR incorporation at 72 hr) was 66 nM and the IC50 (MCF-7 [6]; Homo sapiens, MCF7, read-out: IC50 MCF-7 24 h, Average, MTT at 72 hr, Average of the experiments) was 2000 ± 2400 nM. For the same compound, the IC50 (H-460 [7]; Homo sapiens, NCI-H460, read-out: IC50 H-460 24 h, Average, MTT at 72 hr, Average of the experiments) was 1600 ± 1600 nM, the IC50 (H-460 [7]; read-out: IC50 H-460 24 h, MTT at 72 hr, 24 h exposure, single experiment) was 780 nM and the IC50 (SF-268 [8]; Homo sapiens, SF-268, read-out: IC50 SF-268 24 h, Average, MTT at 72 hr, Average of the experiments) was 29 ± 23 µM. For the same compound, the IC50 (SF-268 [8]; read-out: IC50 SF-268 24 h, MTT at 72 hr, 24 h exposure, single experiment) was 16 µM, the IC50 (CCRF-CEM [9]; Homo sapiens, CCRF-CEM, 24 h, read-out: IC50 CCRF-CEM 24 h, Average, Average ± spread of the repeat determinations, 24 h exposure) was 78 nM and the IC50 (CCRF-CEM [9]; read-out: IC50 CCRF-CEM 24 h, 24 h drug exposure, wash, another 48 hr, 3H-TdR incorporation at 72 hr) was 100 nM. The IC50 (CEM/dCK- [10]; 24 h, read-out: IC50 CEM/dCK- 24 h, Average, Average ± spread of the repeat determinations, 24 h exposure) was greater than 100 µM, the “Factor* (Resistance Factor), Average” value (CEM/dCK- [10]; Average ± spread of the ratios dCK- on wild-type CCRF-CEM) was 1792 ± 1584 and the IC50 (CEM/dCK- [10]; Homo sapiens, CCRF-CEM, read-out: IC50 CEM/dCK- 24 h, 24 h drug exposure, wash, another 48 hr, deoxycytidine kinase-deficient CCRF-CEM) was greater than 100 µM. The IC50 (CEM/dCK- [10]; read-out: IC50 CEM/dCK- 24 h, 24 h drug exposure, wash, another 48 hr, deoxycytidine kinase-deficient CCRF-CEM) was 56 µM.

With `Nc1ccn([C@@H]2CO[C@H](COC(=O)C3(c4ccccc4)CC3)O2)c(=O)n1` [Compound 223, 1-PHENYL- CYCLOPROPANECARBOXYLIC ACID 4-(4-AMINO-2-OXO- 2H-PYRIMIDIN-1-YL)- [1,3]DIOXOLAN-2-YL METHYL ESTER] the IC50 (CEM/dCK- [2]; [17]) was greater than 100 µM, the IC50 (CCRF-CEM [11]) was 0.062 µM and the IC50 (CEM/dCK- [12]) was greater than 100 µM. For the same compound, the “Factor* (Resistance Factor = Ratio of dCK- on Wild-type CCRF-CEM)” value (CEM/dCK- [12]) was greater than 1613, the IC50 (MCF-7 [6]; [18]) was 1700 nM and the IC50 (MCF-7 [6]; [19]) was 2100 nM and 1400 nM. It also gave an IC50 (MCF-7 [13]) of 0.15 µM, an IC50 (H-460 [14]) of 0.035 µM and an IC50 (SF-268 [15]) of 0.25 µM.

In the case of `CC(C)C[C@H](N)C(=O)Nc1ccn([C@@H]2CO[C@H](CO)O2)c(=O)n1` [Compound 257, 2-AMINO-4-METHYL- PENTANOIC ACID [1-(2- HYDROXYMETHYL- [1,3]DIOXOLAN-4-YL)-2- OXO-1,2-DIHYDRO- PYRIMIDIN-4-YL]-AMIDE], the IC50 (CCRF-CEM [1]; [20]) is reported as 4100 nM, the IC50 (CCRF-CEM [1]; [16]) is reported as 5400 nM and the IC50 (CEM/dCK- [2]; [17]) is reported as greater than 100 µM. For the same compound, the IC50 (CCRF-CEM [11]) was 4.2 µM, the IC50 (CEM/dCK- [12]) was greater than 100 µM and the “Factor* (Resistance Factor = Ratio of dCK- on Wild-type CCRF-CEM)” value (CEM/dCK- [12]) was greater than 24. It also gave an IC50 (MCF-7 [6]; [18]) of 36000 nM, an IC50 (MCF-7 [6]; [19]) of 21000 nM and an IC50 (SF-268 [8]; [21]) greater than 100 µM. For the same compound, the IC50 (MCF-7 [13]) was 5 µM, the IC50 (H-460 [14]) was 9.7 µM and the IC50 (SF-268 [15]) was 1.6 µM.

With `CC(C)C[C@H](NC(=O)OCc1ccccc1)C(=O)N[C@@H](C)C(=O)N[C@@H](CC(C)C)C(=O)Nc1ccn([C@@H]2CO[C@H](CO)O2)c(=O)n1` [Compound 267, [1-(1-{1-[1-(2- HYDROXYMETHYL- [1,3]DIOXOLAN-4-YL)-2- OXO-1,2-DIHYDRO- PYRIMIDIN-4- YLCARBAMOYL]-3-METHYL- BUTYLCARBAMOYL}- ETHYLCARBAMOYL)-3- METHYL-BUTYL]-CARBAMIC ACID BENZYL ESTER] the IC50 (CCRF-CEM [1]; [20]) was 2900 nM, the “Resistance Factor*” value (CEM/dCK- [2]; [22]) was greater than 3 and the IC50 (CEM/dCK- [2]; [17]) was greater than 10 µM. It also gave an IC50 (MCF-7 [6]; [18]) of 34000 nM, an IC50 (H-460 [7]; Homo sapiens, NCI-H460, read-out: IC50 H-460 24 h, MTT at 72 hr, 24 h exposure, single experiment) of 93000 nM and an IC50 (SF-268 [8]; [21]) greater than 10 µM.

In the case of `COc1ccc(C(OC[C@H]2OC[C@@H](n3ccc(N)nc3=O)O2)(c2ccc(OC)cc2)c2ccc(OC)cc2)cc1` [Compound 185, 4-AMINO-1-{2-[TRIS-(4- METHOXY-PHENYL)- METHOXYMETHYL]- [1,3]DIOXOLAN-4-YL}-1H- PYRIMIDIN-2-ONE], the IC50 (CCRF-CEM [1]; [16]) is reported as 180 nM, the “Resistance Factor*” value (CEM/dCK- [2]; [22]) is reported as 67 and the IC50 (CEM/dCK- [2]; read-out: IC50 CEM/dCK- 24 h; MMT or WST-1 at 72 hr, 24 h exposure, single experiment) is reported as 12 µM. For the same compound, the IC50 (CCRF-CEM [11]) was 0.066 µM, the IC50 (CEM/dCK- [12]) was 17 µM and the “Factor* (Resistance Factor = Ratio of dCK- on Wild-type CCRF-CEM)” value (CEM/dCK- [12]) was 258. The IC50 (MCF-7 [6]; [18]) was 1400 nM, the IC50 (MCF-7 [6]; [19]) was 2300 nM and the IC50 (MCF-7 [13]) was 0.064 µM. For the same compound, the IC50 (H-460 [14]) was 0.059 µM and the IC50 (SF-268 [15]) was 0.054 µM.
